Results on 42 molecules are retold here after US20240000767A1, “COMBINATION OF AN ALPHA2-ADRENOCEPTOR SUBTYPE C (ALPHA-2C) ANTAGONIST WITH A TASK1/3 CHANNEL BLOCKER FOR THE TREATMENT OF SLEEP APNEA” (Bayer Aktiengesellschaft, priority 2020, published 2024).

This assay has as its target human ADRA2C receptor (Homo sapiens (Human), UniProt P18825). The experiment in a line: In vitro activity assay to determine the inhibition of recombinant ADRA2C (CHO-K1 cells, aequorin bioluminescence). It counts as cell-based. The conditions noted are these: inhibition of noradrenaline-induced bioluminescence signal; some mean values from multiple determinations; read-out: ARα2C IC50. A digest of the protocol: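 IC50 is the concentration halving the agonist (noradrenaline)-evoked rise in aequorin luminescence, fitted by 4-parameter Hill function. Read in stable Gαq/aequorin CHO-K1 cells expressing recombinant human ADRA2C.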

Sequence of human ADRA2C receptor (P18825 whole entry): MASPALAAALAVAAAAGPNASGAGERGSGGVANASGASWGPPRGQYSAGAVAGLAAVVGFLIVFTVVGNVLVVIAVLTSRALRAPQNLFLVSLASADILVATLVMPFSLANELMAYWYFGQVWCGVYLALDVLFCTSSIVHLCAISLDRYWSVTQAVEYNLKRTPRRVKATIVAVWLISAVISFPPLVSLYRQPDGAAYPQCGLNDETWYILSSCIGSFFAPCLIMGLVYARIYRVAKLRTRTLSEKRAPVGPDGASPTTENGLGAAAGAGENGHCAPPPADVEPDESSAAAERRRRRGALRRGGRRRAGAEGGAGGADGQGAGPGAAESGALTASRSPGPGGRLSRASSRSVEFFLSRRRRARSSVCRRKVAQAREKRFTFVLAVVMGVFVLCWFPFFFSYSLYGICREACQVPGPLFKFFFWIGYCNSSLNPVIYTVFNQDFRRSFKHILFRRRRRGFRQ

Turning to `Cc1ccccc1CNC(=O)c1cnc(N2CCC(N3CCC[C@@H](C)C3)CC2)s1` [Example 37, N-(2-methylbenzyl)-2-[(3R)-3-methyl[1,4′-bipiperidin]-1′-yl]-1,3-thiazole-5-carboxamide], the IC50 (as a rule, the concentration needed to halve the response being measured) was found to be 0.2 µM.
`O=C(NCc1ncc(F)cc1F)c1cnc(N2CCC(N3CCC[C@H](C(F)F)C3)CC2)s1` [Example 38, 2-[(3S)-3-(Difluoromethyl)[1,4′-bipiperidin]-1′-yl]-N-[(3,5-difluoropyridin-2-yl)methyl]-1,3-thiazole-5-carboxamide]: the IC50 was determined as 2.34 µM.
Then `O=C(NCc1ncc(F)cc1F)c1cnc(N2CCC(N3CCC[C@@H](C(F)F)C3)CC2)s1` [Example 39, 2-[(3R)-3-(Difluoromethyl)[1,4′-bipiperidin]-1′-yl]-N-[(3,5-difluoropyridin-2-yl)methyl]-1,3-thiazole-5-carboxamide], with 0.135 µM; and `O=C(NCc1ncc(F)cc1F)c1cnc(N2CCC(N3CCC[C@@H](CF)C3)CC2)s1` [Example 41, N-[(3,5-Difluoropyridin-2-yl)methyl]-2-[(3R)-3-(fluoromethyl)[1,4′-bipiperidin]-1′-yl]-1,3-thiazole-5-carboxamide], with 0.243 µM.
Then `O=C(NCc1ncc(F)cc1F)c1cnc(N2CCC(N3CCC[C@@H](C(F)(F)F)C3)CC2)s1` [Example 43, N-[(3,5-Difluoropyridin-2-yl)methyl]-2-[(3R)-3-(trifluoromethyl)[1,4′-bipiperidin]-1′-yl]-1,3-thiazole-5-carboxamide], with 0.026 µM.
As to `O=C(NCc1ncc(F)cc1F)c1cnc(N2CCC(N3CCC[C@@H](OCC4CC(F)(F)C4)C3)CC2)s1` [Example 44, 2-{(3R)-3-[(3,3-Difluorocyclobutyl)methoxy][1,4′-bipiperidin]-1′-yl}-N-[(3,5-difluoropyridin-2-yl)methyl]-1,3-thiazole-5-carboxamide], the half-inhibitory concentration (IC50) came to 0.0412 µM.
Regarding `C[C@@H]1CCCN(C2CCN(c3noc(C(=O)NCc4ncc(F)cc4F)n3)CC2)C1` [Example 49, N-[(3,5-Difluoropyridin-2-yl)methyl]-3-[(3R)-3-methyl[1,4′-bipiperidin]-1′-yl]-1,2,4-oxadiazole-5-carboxamide], the IC50 turned out to be 0.056 µM.
As for `C[C@@H]1CCCN(C2CCN(c3ncc(C(=O)NCc4ncc(Cl)s4)s3)CC2)C1` [Example 56, N-[(5-Chloro-1,3-thiazol-2-yl)methyl]-2-[(3R)-3-methyl[1,4′-bipiperidin]-1′-yl]-1,3-thiazole-5-carboxamide], the figure is 0.24 µM; as for `C[C@@H]1CCCN(C2CCN(c3ncc(C(=O)NCc4ccc(F)s4)s3)CC2)C1` [Example 57, N-[(5-Fluoro-2-thienyl)methyl]-2-[(3R)-3-methyl[1,4′-bipiperidin]-1′-yl]-1,3-thiazole-5-carboxamide], 0.83 µM; as for `C[C@@H]1CCCN(C2CCN(c3ncc(C(=O)NCc4ccncc4)s3)CC2)C1` [Example 58, 2-[(3R)-3-Methyl[1,4′-bipiperidin]-1′-yl]-N-(pyridin-4-ylmethyl)-1,3-thiazole-5-carboxamide], 0.87 µM.
As for `CC1(C)CCCN(C2CCN(c3ncc(C(=O)NCc4ncc(F)cc4F)s3)CC2)C1` [Example 63, N-[(3,5-Difluoropyridin-2-yl)methyl]-2-(3,3-dimethyl[1,4′-bipiperidin]-1′-yl)-1,3-thiazole-5-carboxamide], the figure is 0.57 µM; as for `O=C(NCc1ncc(F)cc1F)c1cnc(N2CCC(N3CCCC4(CC4)C3)CC2)s1` [Example 64, 2-[4-(5-Azaspiro[2.5]octan-5-yl)piperidin-1-yl]-N-[(3,5-difluoropyridin-2-yl)methyl]-1,3-thiazole-5-carboxamide], 0.0014 µM.
As to `C[C@@H]1CCCN(C2CCCN(c3ncc(C(=O)NCc4ncc(F)cc4F)s3)CC2)C1` (stereo partly drawn) [Example 71, N-[(3,5-Difluoropyridin-2-yl)methyl]-2-{4-[(3R)-3-methylpiperidin-1-yl]azepan-1-yl}-1,3-thiazole-5-carboxamide], the IC50 was 0.1 µM.
Then `Cc1ccc(CNC(=O)c2cnc(N3CCC(N4CCC[C@@H](C)C4)CC3)s2)cn1` [Example 72, 2-[(3R)-3-methyl[1,4′-bipiperidin]-1′-yl]-N-[(6-methylpyridin-3-yl)methyl]-1,3-thiazole-5-carboxamide], with 0.18 µM; and `C[C@@H]1CCCN(C2CCN(c3ncc(C(=O)NCc4ccccc4)s3)CC2)C1` [Example 73, N-Benzyl-2-[(3R)-3-methyl[1,4′-bipiperidin]-1′-yl]-1,3-thiazole-5-carboxamide], with 0.219 µM.
As for `CC(F)CCOCC1CCCN(C2CCN(c3ncc(C(=O)NCc4ncc(F)cc4F)s3)CC2)C1` (stereo not drawn) [Example 74, diamix-N-[(3,5-Difluoropyridin-2-yl)methyl]-2-[3-({[3-fluorobutyl]oxy}methyl)[1,4′-bipiperidin]-1′-yl]-1,3-thiazole-5-carboxamide], the figure is 0.285 µM; as for `C[C@@H]1CCCN(C2CCN(c3ncc(C(=O)NCc4ccncc4F)s3)CC2)C1` [Example 76, N-[(3-Fluoropyridin-4-yl)methyl]-2-[(3R)-3-methyl[1,4′-bipiperidin]-1′-yl]-1,3-thiazole-5-carboxamide], 0.4 µM; as for `Cc1cc(C)c(CNC(=O)c2cnc(N3CCC(N4CCC[C@@H](C)C4)CC3)s2)cn1` [Example 78, N-[(4,6-Dimethylpyridin-3-yl)methyl]-2-[(3R)-3-methyl[1,4′-bipiperidin]-1′-yl]-1,3-thiazole-5-carboxamide], 0.755 µM.
As for `C[C@@H]1CCCN(C2CCN(c3ncc(C(=O)NCc4c(Cl)cnn4C)s3)CC2)C1` [Example 79, N-[(4-Chloro-1-methyl-1H-pyrazol-5-yl)methyl]-2-[(3R)-3-methyl[1,4′-bipiperidin]-1′-yl]-1,3-thiazole-5-carboxamide], the figure is 0.0503 µM; as for `COc1cccc(CNC(=O)c2cnc(N3CCC(N4CCC[C@@H](C)C4)CC3)s2)c1` [Example 80], 0.0905 µM.
With `C[C@@H]1CCCN(C2CCN(c3ncc(C(=O)NCc4cc(F)ccc4F)s3)CC2)C1` [Example 81], the IC50 is 0.0222 µM.
Then `C[C@@H]1CCCN(C2CCN(c3ncc(C(=O)NCc4cccc(O)c4)s3)CC2)C1` [Example 82], with 0.102 µM; and `CC(CNC(=O)c1cnc(N2CCC(N3CCC[C@@H](C)C3)CC2)s1)c1ccccc1` (stereo partly drawn) [Example 83], with 0.0981 µM; and `C[C@@H]1CCCN(C2CCN(c3ncc(C(=O)NCc4ccc(F)cc4)s3)CC2)C1` [Example 84], with 0.065 µM.
As for `C[C@@H]1CCCN(C2CCN(c3ncc(C(=O)NCc4cccnc4)s3)CC2)C1` [Example 85], the IC50 turned out to be 0.6 µM.
As for `C[C@@H]1CCCN(C2CCN(c3ncc(C(=O)NCc4cccc(F)c4)s3)CC2)C1` [Example 86], the figure is 0.028 µM.
As for `C[C@@H]1CCCN(C2CCN(c3ncc(C(=O)NCc4ccccc4F)s3)CC2)C1` [Example 87], the IC50 turned out to be 0.0255 µM.
For the molecule `C[C@@H]1CCCN(C2CCN(c3ncc(C(=O)Nc4ccc(F)c(C#N)c4)s3)CC2)C1` [Example 89], the IC50 was 0.23 µM.
As for `C[C@@H]1CCCN(C2CCN(c3ncc(C(=O)N(C)Cc4cccnc4)s3)CC2)C1` [Example 90], the figure is 0.097 µM; as for `C[C@@H]1CCCN(C2CCN(c3ncc(C(=O)N(C)Cc4ccncc4)s3)CC2)C1` [Example 91], 0.284 µM.
As for `C[C@@H]1CCCN(C2CCN(c3ncc(C(=O)N(C)Cc4ccccc4)s3)CC2)C1` [Example 92], the figure is 0.085 µM; as for `C[C@@H]1CCCN(C2CCN(c3ncc(C(=O)Nc4ccccc4C4CC4)s3)CC2)C1` [Example 93], 0.63 µM.
Consider `C[C@@H]1CCCN(C2CCN(c3ncc(C(=O)NCc4cccc(Cl)c4)s3)CC2)C1` [Example 94], for which the IC50 came out at 0.15 µM.
For the molecule `Cc1ccc(C(C)NC(=O)c2cnc(N3CCC(N4CCC[C@@H](C)C4)CC3)s2)cc1` (stereo partly drawn) [Example 95], the IC50 is 0.8 µM.
As for `C[C@@H]1CCCN(C2CCN(c3ncc(C(=O)Nc4cc(Cl)ccc4O)s3)CC2)C1` [Example 96], the figure is 1 µM; as for `COc1ccc(F)cc1NC(=O)c1cnc(N2CCC(N3CCC[C@@H](C)C3)CC2)s1` [Example 97], 1.3 µM.
Then `CCc1cc(NC(=O)c2cnc(N3CCC(N4CCC[C@@H](C)C4)CC3)s2)ccn1` [Example 98], with 1.6 µM.
Then `O=C(NCc1ncc(F)cc1F)c1cnc(N2CCC(N3CCC[C@@H](OCC4CC4)C3)CC2)s1` [Example 114, 2-[(3R)-3-(Cyclopropylmethoxy)[1,4′-bipiperidin]-1′-yl]-N-[(3,5-difluoropyridin-2-yl)methyl]-1,3-thiazole-5-carboxamide], with 0.0013 µM; and `C[C@@H]1CCCN(C2CCN(c3nc(-c4ccccc4Cl)c(C(=O)NCc4ncc(F)cc4F)s3)CC2)C1` [Example 118, 4-(2-Chlorophenyl)-N-[(3,5-difluoropyridin-2-yl)methyl]-2-[(3R)-3-methyl[1,4′-bipiperidin]-1′-yl]-1,3-thiazole-5-carboxamide], with 0.0077 µM; and `C[C@@H]1CCCN(C2CCN(c3nc(Cl)c(C(=O)NCc4ncc(F)cc4F)s3)CC2)C1` [Example 120, 4-Chloro-N-[(3,5-difluoropyridin-2-yl)methyl]-2-[(3R)-3-methyl[1,4′-bipiperidin]-1′-yl]-1,3-thiazole-5-carboxamide], with 0.041 µM.
For the molecule `C[C@@H]1CCCN(C2CCN(c3nc(C4CC4)c(C(=O)NCc4ncc(F)cc4F)s3)CC2)C1` [Example 122, 4-Cyclopropyl-N-[(3,5-difluoropyridin-2-yl)methyl]-2-[(3R)-3-methyl[1,4′-bipiperidin]-1′-yl]-1,3-thiazole-5-carboxamide], the IC50 came to 0.013 µM.
As for `O=C(NCc1ncc(F)cc1F)c1cnc(N2CCC(N3CCCCC3)CC2)s1` [Example 128, 2-([1,4′-Bipiperidin]-1′-yl)-N-[(3,5-difluoropyridin-2-yl)methyl]-1,3-thiazole-5-carboxamide], the concentration for half-maximal inhibition (IC50) turned out to be 0.55 µM.
